The assay concerns lipopolysaccharide (LPS)-induced nitric oxide (NO) production in RAW 264.7 mouse macrophages. Put plainly: LPS-induced NO (nitrite) production in RAW 264.7 cells, Griess reagent. It is filed as cell-based. The note with it: for IC50: Mus musculus. How it is done: A RAW 264.7 murine macrophage cell line was purchased from American Type Cell Culture (Rockville, MD, USA). Cells were cultured in DMEM with 10% fetal bovine serum and antibiotic−antimycotics (i.e., penicillin G sodium, 100 units/mL; streptomycin, 100 μg/mL; amphotericin B, 250 ng/mL) at 37 °C in a humidified incubator with 5% carbon dioxide. All reagents used for cell culture were purchased from Gibco® Invitrogen Corp. (Grand Island, NY, USA).
The concentration of nitrite in the cultured media was used as a measure of NO production. The assay was performed as previously described. RAW 264.7 cells were plated at a density of 5 × 10^5 per well in a 24-well culture plate and incubated in a 37 °C humidified incubator with 5% CO2 in air for 18 h. The incubated cells were pretreated with phenol-red-free medium containing various concentrations of tested compounds for 30 min, followed by 1 μg/mL of LPS treatment for 18 h more. Aliquots of the supernatant from each well (100 μL) were transferred to a 96-well plate, and nitrite concentration was measured using Griess reagent. After the Griess reaction, MTT solution (final concentration of 500 μg/mL) was added to each well and further incubated for 4 h at 37 °C. Each medium was discarded, and dimethyl sulfoxide was added to each well to dissolve generated formazan. The absorbance was measured at 570 nm, and percent survival was determined by comparison with LPS treated control group. All reagents used in the nitrite production measurement were purchased from Sigma-Aldrich (St. Louis, MO, USA).
(Griess reagent forms a coloured azo dye with nitrite.)

Where [1] appears, read: RAW264.7, RAW 264.7 cells, compounds 30 min before LPS 1 μg/mL, 18 h, read-out: IC50, suppression of LPS-induced NO production.

The structures appear in SMILES notation. Read-outs that look alike come from different tables or passages of the source.

The results in this text go back to paper PMC7551059, “Bioactive Bianthraquinones and Meroterpenoids from a Marine-Derived Stemphylium sp. Fungus” (Marine Drugs, 2020).

As to `COc1cc2c(c(O)c1-c1c(OC)cc(O)c3c1C(=O)C1=C(C3=O)[C@H](O)[C@@H](O)[C@@](C)(O)[C@@H]1O)C(=O)c1cc(O)c(C)cc1C2=O` [Compound 5, alterporriol G], the IC50 (as a rule, the point on the concentration scale where inhibition reaches its midpoint) (RAW264.7, read-out: IC50, suppression of LPS-induced NO production) came out at 8.4 ± 0.4 µM.
Turning to `COc1cc(O)c2c(c1)C(=O)c1cc(C)c(O)c(-c3c(OC)cc(O)c4c3C(=O)C3=C(C4=O)[C@H](O)[C@@H](O)[C@@](C)(O)[C@H]3O)c1C2=O` [Compound 6, alterporriol N], the IC50 under setting [1] was 10.7 ± 0.6 µM.
Turning to `COc1c(-c2cc(O)c3c(c2OC)C(=O)c2cc(C)c(O)cc2C3=O)cc(O)c2c1C(=O)C1=C(C2=O)[C@H](O)[C@@H](O)[C@@](C)(O)[C@H]1O` (relative stereo) [Compound 2, alterporriol Z2], the IC50 under setting [1] amounted to 16.1 ± 1.1 µM.
`COc1cc(O)c2c(c1)C(=O)c1cc(C)c(O)c(-c3c(OC)cc(O)c4c3C(=O)C3=C(C4=O)C(OC)C(O)C(C)(O)C3O)c1C2=O` (stereo not drawn) [Compound 3, alterporriol Z3]: the “IC50, suppression of LPS-induced NO production” value (RAW 264.7 cells, compounds 30 min before LPS 1 μg/mL, 18 h) was “inactive”.
For `COc1c(-c2cc(O)c3c(c2OC)C(=O)c2cc(C)c(O)cc2C3=O)cc(O)c2c1C(=O)C1=C(C2=O)C(O)C(O)C(C)(O)C1O` (stereo not drawn) [Compound 1, alterporriol Z1], the IC50 under setting [1] was found to be 11.6 ± 0.7 µM.
Consider `COc1cc(O)c2c(c1-c1c(OC)cc(O)c3c1C(=O)c1cc(C)c(O)cc1C3=O)C(=O)C1=C(C[C@@H](O)[C@@](C)(O)[C@@H]1O)C2=O` [Compound 4, alterporriol F], for which the IC50 under setting [1] stood at 9.6 ± 1.6 µM.
